According to patent US11014896B2, “TRPA1 and TRPV4 inhibitors and methods of using the same for organ-specific inflammation and itch” (Duke University, priority 2014, dated 2021):
“Also recorded” adds a separate entry of the source.

Legend:
[1] = molecular target: T1, human TRPV3 (Homo sapiens, UniProt Q8NET8); experiment: Ca2+ signal in N2a cells transfected with human TRPV3; format: cell-based; details: stimulation with camphor
T1 construct: expressed in transfected cells; host or cells: N2a cells
T1 sequence (Q8NET8 1-790): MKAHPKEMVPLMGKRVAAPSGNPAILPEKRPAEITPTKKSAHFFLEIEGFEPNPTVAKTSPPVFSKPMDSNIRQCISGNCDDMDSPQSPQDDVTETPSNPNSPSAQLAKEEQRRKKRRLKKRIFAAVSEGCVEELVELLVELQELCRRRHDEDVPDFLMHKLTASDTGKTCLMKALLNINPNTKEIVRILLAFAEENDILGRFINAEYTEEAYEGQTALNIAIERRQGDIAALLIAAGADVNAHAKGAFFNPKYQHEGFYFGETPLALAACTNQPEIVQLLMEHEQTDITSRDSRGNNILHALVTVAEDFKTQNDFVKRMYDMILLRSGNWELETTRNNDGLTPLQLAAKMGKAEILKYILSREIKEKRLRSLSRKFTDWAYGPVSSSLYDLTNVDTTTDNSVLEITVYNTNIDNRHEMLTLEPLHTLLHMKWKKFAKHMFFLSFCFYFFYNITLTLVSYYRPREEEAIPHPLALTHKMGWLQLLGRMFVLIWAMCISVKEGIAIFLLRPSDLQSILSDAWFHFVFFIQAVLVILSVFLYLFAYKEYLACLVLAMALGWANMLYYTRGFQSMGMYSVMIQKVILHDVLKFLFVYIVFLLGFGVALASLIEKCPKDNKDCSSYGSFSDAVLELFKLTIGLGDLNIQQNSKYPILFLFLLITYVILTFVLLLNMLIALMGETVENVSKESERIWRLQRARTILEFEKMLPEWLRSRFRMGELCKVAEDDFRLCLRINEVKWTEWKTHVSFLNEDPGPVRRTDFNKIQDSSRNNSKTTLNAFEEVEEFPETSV
Procedure: Compounds were tested for their effect on TRPV1, TRPV2, and TRPV3. Methods were similar to those described in Example 15. Briefly, N2a cells were transfected with human TRPV1, TRPV2, or TRPV3. eGFP-transfection was used as control. For specific stimulation of TRPV1, 5 μM capsaicin was used. For stimulation of TRPV2, hypotonicity (260 mosmol/L) was used, based on previous reports of TRPV2 being osmotically responsive. N2a cells were not responsive to hypotonicity, and neither were control-transfected cells. For TRPV3-expressing cells, camphor (20% of a commercially available stock solution) was used. […] Stimulation and control protocols were applied as for TRPA1-expressing N2a cells as detailed above in Example 15.

[2] = UVB-induced nocifensive behavior after topical GSK205 (Hargreaves' test, von Frey hair); format: in vivo, mouse
Procedure: Behavioral tests were performed to evaluate the decrease in withdrawal thresholds in response to mechanical von Frey hair or thermal stimuli applied to hind paws. […]. These withdrawal thresholds were ascertained before and after UV exposure. Mice were exposed using a Bio Rad Gel Doc 2000 UV transilluminator (302 nm) for 5 minutes with an exposure of 600 mJ/cm^2, 3-5 days after the last application of tamoxifen/oil.
(§1) GSK205 topical treatment: A viscous solution of 68% EtOH/5% glycerol plus 1 mM or 5 mM GSK205 (none for control) was applied to hindpaws by rubbing in 20 μL, applied at time-points 1 hour and again 10 min before UV exposure.
Behavioral tests were performed to evaluate the decrease in withdrawal thresholds in response to mechanical or thermal stimuli applied to hind paws. These withdrawal thresholds were ascertained before and after UVB exposure. Mice were confined by plexi-glass enclosures on top of 25×26 cm Bio Rad Gel Doc 2000 UV transilluminator (302 nm), and otherwise allowed to openly explore this environment. UV-exposure lasted for 5 minutes with an exposure of 600 mJ/cm^2.
Hindpaw mechanical withdrawal thresholds were determined by the automated von Frey hair method, using a 0.5 mm diameter stainless steel filament, part of an automated plantar touch stimulator (Ugo Basile, Modena, Italy). Relevant detail included pre-test acclimatization in a quiet room for 30 min, conducting the test at the same time of day and blinded observers. The stimulus was delivered to the hindpaw, automatically discontinued upon withdrawal, and its intensity recorded automatically. 6-8 trials per animal were conducted, with equal exposure of both hindpaws, leading to an average withdrawal threshold. Results are reported as […], which was calculated by subtracting post-treatment from pre-treatment measurements, expressed as % or relative to 1.0.
Hindpaw thermal (hot) withdrawal thresholds were determined by the well-established Hargreaves' method, using an infra-red thermal stimulation device that delivers the stimulus from underneath the hindpaw combined with automatic shut-off upon withdrawal (Ugo Basile). Stimulation and measurements were conducted as described for von Frey hair testing. A cutoff of 20 sec was set to prevent tissue damage.

[3] = tested on: ET1/Edn1; experiment: Edn1 mRNA (qPCR) in UVB-exposed paw-pad epidermis after topical treatment; format: in vivo, mouse; details: 5 mM GSK205 topical; 2 hour and 24 hour time-points
Procedure: as §1

[4] = Histopathology of UVB-photodermatitis in topically treated paw-pad skin; format: in vivo, mouse; details: 5 mM GSK205 topical
Procedure: as §1

Row | SMILES | Ca2+ transience on TRPV3 stimulation [1] | delay in thermal sensitivity after UVB ([2]; 1 mM GSK205 topical, WT mice) [h] | thermally-evoked nocifensive behavior (Hargreaves' test) after UVB ([2]; 5 mM GSK205 topical, 60′ and 10′ pre-exposure, WT mice) | nocifensive behavior after UVB in Trpv4−/− mice vs. vehicle (off-target effects) ([2]; 5 mM GSK205 topical, Trpv4−/− mice) | sensitivity to von Frey hair mechanical stimulation after UVB ([2]; topical GSK205, WT mice) | Edn1 mRNA expression after UVB [3] | UVB-photodermatitis histopathology (inflammation) [4]
1 | CN(CCc1ccc(Nc2nc(-c3ccccc3)cs2)cc1)Cc1ccccc1 [Compound 16-8] | not affected |  |  |  |  |  | 
2 | CN(CCc1ccc(Nc2nc(-c3cccnc3)cs2)cc1)Cc1ccccc1 [GSK205] |  | ~24 | sustained attenuation of thermally-evoked nocifensive behavior; also recorded: significant attenuation of thermal allodynia | did not show any inter-group differences; also recorded: lack of off-target effects | significantly reduced sensitivity | unchanged; also recorded: complete lack of this regulation | virtual elimination of inflammation; also recorded: markedly reduced inflammatory infiltrate
